The values below come from patent US11360080B2, “AhR-ROR-γt complex as a biomarker and therapeutic target for autoimmune disease and IL-17A-associated disease” (NATIONAL HEALTH RESEARCH INSTITUTES, priority 2018, dated 2022).

Molecules are shown by their SMILES. Where a name gives a salt, the structure may show the parent alone.

For one test, the target named is T1, GLK kinase domain (Homo sapiens, UniProt Q8IVH8).
T1 construct: recombinant proteins of the GLK kinase-domain (1 μg) were incubated with recombinant proteins of kinase-dead PKCθ
T1 sequence (Q8IVH8 16-273 limits assumed): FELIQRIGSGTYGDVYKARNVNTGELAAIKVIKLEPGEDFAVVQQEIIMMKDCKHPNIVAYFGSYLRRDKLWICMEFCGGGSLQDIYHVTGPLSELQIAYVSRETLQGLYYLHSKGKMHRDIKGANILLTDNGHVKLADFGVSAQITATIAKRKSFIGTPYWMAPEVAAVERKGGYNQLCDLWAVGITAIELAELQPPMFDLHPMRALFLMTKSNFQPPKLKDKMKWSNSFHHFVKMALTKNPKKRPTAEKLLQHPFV
As to the kind of experiment: In vitro GLK kinase assay (ADP-GLO) with kinase-dead PKCθ (K409W) as substrate. The class given is biochemical. Particulars: screening of 101,200 compounds. On the procedure:
(A) Luciferase activity of NF-κB-driven reporter assays in stable GLK-transfected CHO-K1 cells that were treated with or without the GLK inhibitor C1 (verteporfin) under the indicated concentration. The fold changes are presented relative to the value of vector control. (B) Recombinant proteins of GLK kinase domain plus recombinant proteins of GST-tagged kinase-dead PKCθ (K409W) were subjected to in vitro kinase assays in the presence or absence of the GLK inhibitor C1 (verteporfin). Means±SD of are shown. *, P value<0.05; **, P value<0.01 (two-tailed Student's t-test). (C) The AhR-RORγt complex was inhibited by the GLK inhibitor. Confocal microscopy of proximity ligation assays (PLA) for the interaction between AhR and either RORγt or phospho-RORγt (S489) in peripheral blood T cells treated with C1 (verteporfin) (5 μM) for 30 min. The T cells were freshly isolated from 4 SLE patients and 1 RA patients. C1 denotes verteporfin; C2 denotes alexidine dihydrochloride. (D) Quantification of the PLA signals of (C). (E) FRET assays of HEK293T cells co-transfected with CFP-AhR, YFP-RORγt, and IKKβ plasmids.
GLK kinase activity was determined by measuring the rate of ADP production in the in vitro kinase reaction using ADP-GLO™ Kinase Assay kit. For the kinase reaction, recombinant proteins of the GLK kinase-domain (1 μg) were incubated with recombinant proteins of kinase-dead PKCθ (K409W; 0.15 μg) plus ATP (0.1 mM) or myelin basic protein (MBP) plus ATP (0.1 mM) in kinase buffer (40 mM Tris-HCl, pH7.5.20 mM MgCl2, 0.1 mg/ml BSA, 10 mM DTT and 0.1 mM Na3VO4) for 30 min at room temperature.
Cell-based high-throughput screening was conducted against a representative library of 100,000 molecules at ˜10 μM. CHO-GLK-Luc cells expressing GLK and NF-κB-luciferase reporter were used. The reaction volume was 5 μl (500 cells) per well in 1,536-well plates. There was no positive control. This high-throughput screening campaign was successful with a determined Z′ factor of 0.57˜0.60. […]
A general note: ADP-Glo first removes unused ATP, then detects ADP through luciferase.

For a further test, the system named is EAE in wild-type mice. Briefly: Experimental autoimmune encephalomyelitis (EAE) induction in wild-type mice. The test is classed as in vivo, mouse. Particulars: C1 0.556 nmole/g, C2 0.085 nmole/g; for serum IL-17A levels in EAE: day 16. The text has this:
(A to C) Effect of the GLK inhibitor C1 (verteporfin) administration (0.556 nmole/g every 3 days for 30 days) on serum IL-17A and autoantibodies in Lck-GLK Tg mice. (B) ELISA of indicated serum cytokines in Lck-GLK Tg mice treated with C1 (verteporfin) or PBS. (C) ELISA of serum autoantibodies in Lck-GLK Tg mice treated with C1 (verteporfin) or PBS. Means±SEM are shown. (D) Experimental autoimmune encephalomyelitis (EAE) induction in wild-type mice treated with PBS, or the GLK inhibitor C1 (verteporfin) and C2. Clinical scores are presented on a scale of 1 to 5 (left panel). ELISA of IL-17A in the sera from MOG-immunized mice at day 16 (right panel). (E) Collagen-induced arthritis (CIA) induction in wild-type mice treated with the GLK inhibitor C1 (verteporfin) or PBS. Clinical scores are presented on a scale of 1 to 16 (left panel). ELISA of IL-17A in the sera from collagen-immunized mice at day 28. Means±SEM are shown. *, P value<0.05; **, P value<0.01; ***, P value<0.001 (two-tailed Student's […]). C1 denotes verteporfin; C2 denotes alexidine dihydrochloride.
Moreover, overproduction of autoantibodies in Lck-GLK Tg mice were also abolished by C1 (verteporfin) treatment (FIG. 10C). […] To further verify that the GLK inhibitors also works in IL-17A-mediated animal models, we challenged wild-type mice with C1 (verteporfin) or C2 (alexidine dihydrochloride) during EAE and CIA induction.

Regarding `CCCCC(CC)CNC(=N)NC(=N)NCCCCCCNC(=N)NC(=N)NCC(CC)CCCC` (stereo not shown) [C2, alexidine dihydrochloride], the “GLK kinase activity in vitro” value at GLK kinase domain is reported as “efficiently inhibited”. Besides, in the test on EAE in wild-type mice, the “disease severity (clinical score) in EAE” value is reported as “significantly suppressed” and the “serum IL-17A levels in EAE” value was “significantly suppressed”.
On to `C=Cc1c(C)c2cc3nc(cc4[nH]c(cc5nc(cc1[nH]2)C(C)=C5CCC(=O)O)c(CCC(=O)OC)c4C)[C@@]1(C)C3=CC=C(C(=O)OC)[C@H]1C(=O)OC` [C1, verteporfin], for which the results for the “GLK kinase activity in vitro” value on GLK kinase domain and at GLK kinase domain (listed as verteporfin) were “efficiently inhibited” and “most effective inhibitor”, respectively. Also, the “disease severity (clinical score) in EAE” value in the test with EAE in wild-type mice is “significantly suppressed”. Besides, the “serum IL-17A levels in EAE” value in the test on EAE in wild-type mice is given as “significantly suppressed”.
